Some test systems named below: SF-268 CNS; HCT-15 colon; SNB-19 CNS; U251 CNS; HCC-2998 colon; M19-MEL melanoma; NCI-H23 lung; RPMI-8226 leukemia; OVCAR-5 ovarian; M14 melanoma; SW-620 colon; DLD-1 colon; ACHN renal; OVCAR-8 ovarian; CCRF-CEM leukemia; HT29 colon; SNB-75 CNS; SK-MEL-28 melanoma; NCI-H522 lung; OVCAR-3 ovarian.
What all share (assay): DTP human tumour cell line panel, 48 h

These results are taken from PubChem BioAssay (NCI).

SMILES strings stand for the structures.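 Five concentrations, 48 hours, 96-well plates. TGI is the concentration that stops growth completely.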

As for `Cc1ccccc1NC(=O)C(=O)C(C1OC(=O)c2ccccc21)[N+](=O)[O-]` (stereo unspecified), the TGI with SF-268 CNS, in the assay on HCT-15 colon, with SNB-19 CNS, in the assay with U251 CNS, with HCC-2998 colon and with M19-MEL melanoma was above 100 µM throughout. For the same compound, the TGI in the assay with NCI-H23 lung, in the assay with RPMI-8226 leukemia, in the assay on OVCAR-5 ovarian, in the assay on M14 melanoma, in the assay with SW-620 colon and with DLD-1 colon was above 100 µM throughout. The TGI with ACHN renal, with OVCAR-8 ovarian, with CCRF-CEM leukemia, in the assay with HT29 colon, in the assay on SNB-75 CNS and in the assay with SK-MEL-28 melanoma was above 100 µM in each case. In the assay with NCI-H522 lung, the TGI (commonly the concentration at which net growth stops) was above 100 µM.
As for `NCC(=O)N[C@H]1c2ccsc2/C(=N/O)[C@H]1O`, the TGI in the assay on HCT-15 colon, in the assay on U251 CNS, in the assay on HCC-2998 colon, with NCI-H23 lung, in the assay on OVCAR-5 ovarian and in the assay with M14 melanoma was above 100 µM throughout. In addition, the TGI in the assay with SW-620 colon, in the assay on OVCAR-8 ovarian, with CCRF-CEM leukemia, in the assay with HT29 colon, in the assay on SK-MEL-28 melanoma and with OVCAR-3 ovarian was above 100 µM throughout.
Take `CC1OC1C(=O)P(=O)(O)O` (stereo unspecified): the TGI in the assay with SF-268 CNS, in the assay with HCT-15 colon, in the assay with SNB-19 CNS, in the assay on U251 CNS, with HCC-2998 colon and in the assay with NCI-H23 lung was above 100 µM in each case. Moreover, the TGI with RPMI-8226 leukemia, with OVCAR-5 ovarian, in the assay with M14 melanoma, in the assay on SW-620 colon, in the assay with ACHN renal and in the assay with OVCAR-8 ovarian was above 100 µM each time. The TGI with CCRF-CEM leukemia, with SNB-75 CNS, in the assay on SK-MEL-28 melanoma, in the assay with OVCAR-3 ovarian and in the assay on NCI-H522 lung was above 100 µM each time.
Turning to `CCOC(=O)c1ccc(N2C(=O)/C(=C/c3ccc(N(CCC#N)CCC#N)cc3)N=C2c2cc([N+](=O)[O-])ccc2Cl)cc1`, the TGI in the assay with SF-268 CNS, in the assay on HCT-15 colon, with SNB-19 CNS, with U251 CNS, in the assay with HCC-2998 colon and in the assay on M19-MEL melanoma was above 100 µM throughout. For the same compound, the TGI with NCI-H23 lung, in the assay on RPMI-8226 leukemia, with OVCAR-5 ovarian, in the assay with SW-620 colon, in the assay with DLD-1 colon and in the assay on ACHN renal was above 100 µM throughout. The TGI in the assay on OVCAR-8 ovarian, in the assay on CCRF-CEM leukemia, with SK-MEL-28 melanoma, in the assay with OVCAR-3 ovarian and with NCI-H522 lung was above 100 µM throughout.
As for `COC1CCC(O)C(CO)O1` (stereo unspecified), the TGI in the assay with HCT-15 colon, in the assay with HCC-2998 colon, in the assay with M19-MEL melanoma, with NCI-H23 lung, with OVCAR-5 ovarian and in the assay on M14 melanoma was above 100 µM each time. For the same compound, the TGI in the assay on SW-620 colon was above 100 µM; in the assay on DLD-1 colon it was above 100 µM; in the assay with ACHN renal, above 100 µM; in the assay with OVCAR-8 ovarian, above 100 µM; in the assay on CCRF-CEM leukemia, 77.3 µM; in the assay on HT29 colon, above 100 µM. Moreover, the TGI with SNB-75 CNS was above 100 µM; in the assay on SK-MEL-28 melanoma, above 100 µM; with OVCAR-3 ovarian, above 100 µM; in the assay with NCI-H522 lung it was 26.9 µM.
